# Experimental data reported in patent EP4691489A1, “GROWTH HORMONE SECRETION PROMOTER” (Scohia Pharma, Inc., priority 2023, dated 2024).
# Columns and labels:
# SSTR 5 [1] = molecular target: T1, SSTR 5 (Homo sapiens, UniProt P35346); assay: human SSTR5 antagonist activity using intracellular cAMP concentration as an indicator (HTRF); type: cell-based; parameters: expressed in transfected cells; conditions: 1 µM test compound; CHO (dhfr-) cells expressing human SSTR5; 0.1 nM somatostatin 28, 0.3 µM forskolin; read-out: inhibitory rate (%) against SSTR5 at 1 µM
# T1 sequence (P35346 whole entry): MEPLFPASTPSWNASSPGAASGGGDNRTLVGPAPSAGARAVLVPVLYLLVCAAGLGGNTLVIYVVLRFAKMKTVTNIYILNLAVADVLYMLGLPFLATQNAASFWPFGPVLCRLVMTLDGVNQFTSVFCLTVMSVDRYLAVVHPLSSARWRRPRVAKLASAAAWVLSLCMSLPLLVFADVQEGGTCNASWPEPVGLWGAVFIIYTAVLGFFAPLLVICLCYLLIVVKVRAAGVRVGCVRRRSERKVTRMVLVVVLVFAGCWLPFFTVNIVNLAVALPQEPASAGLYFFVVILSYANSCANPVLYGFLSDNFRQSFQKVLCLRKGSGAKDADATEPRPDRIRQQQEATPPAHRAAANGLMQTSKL
# Method: The intracellular cAMP concentration was measured using HTRF cAMP dynamic 2 kit (Cisbio). A test compound diluted with an assay buffer (5 mM HEPES (pH 7.5) (Invitrogen), 0.1% fatty-acid free BSA (Sigma), and 500 µM IBMX (Wako)-containing HBSS (Invitrogen)) was added at 2 µL/well to a 384-well white plate (Greiner) to a final concentration of 1 µM. Frozen stock of CHO (dhfr-) cells stably expressing the human SSTR5 gene (Accession No. NM_001053) was thawed in a thermostatic tank at 37°C and suspended in a passage medium (MEM alpha (Wako)) containing 10% dialyzed serum (Gemini) and 50 µg/mL gentamicin (Invitrogen). The cell suspension was centrifuged, and the cells were resuspended in an assay buffer, and added by 2 µL to each well at about 4,000 cells/well. The compound and the cells were incubated for 15 min, an assay buffer containing a final concentration 0.1 nM of somatostatin 28 (Toray Research Center) and 0.3 µM forskolin (Wako) was added by 2 µL/well, and the cells were incubated at room temperature for 30 min. cAMP-d2 and anti-cAMP-cryptate were each added by 3 µL/well, allowed to stand at room temperature for 60 min, and the fluorescence resonance energy transfer (FRET) intensity was measured using the Multi-label reader Envision (Perkin Elmer). The FRET intensity of the wells to which the test compound group was added was converted into cAMP concentration by using a calibration curve created from the FRET intensities of well groups in which cAMP at any concentration was added to the assay buffer. The inhibitory activity of the compound was calculated using the following formula. Inhibitory activity(%) = (C−B)/(A−B) × 100 [formula] • A: cAMP concentration calculated from wells containing 0.3 µM forskolin • B: cAMP concentration calculated from wells containing 0.3 µM forskolin, 0.1 nM somatostatin 28 • C: cAMP concentration of wells containing 0.3 µM forskolin, 0.1 nM somatostatin 28, and 1 µM test compound
# [2] = tested on: healthy Japanese adult men; assay: Phase 1 single dose study, blood anterior pituitary hormone concentrations (ELISA); type: in vivo; conditions: human
# Method: The examples in this section show the measurement results of blood anterior pituitary hormone concentrations using blood samples from a dose escalation study targeting healthy Japanese adult men, from A Randomized, Double-Blind, Placebo-Controlled, Phase 1 Study (jRCT2051210027) targeting healthy adults, which was conducted to examine the safety and tolerability, pharmacokinetics, and pharmacodynamic action of a single administration of test compound 1.
# In a randomized, double-blind, placebo-controlled, parallel-group comparison, dose-escalation study consisting of 7 cohorts, a single dose of test compound 1 (1, 3, 10, 20, 40, 80 and 160 mg) or placebo was orally administered under fasting conditions. Eight test subjects (6 in the active drug group and 2 in the placebo group) participated in each cohort. The concomitant use of all medications was prohibited from 28 days before hospitalization until discharge.
# The test subjects were inspected and examined within 28-2 days and 1 day before administration of test compound 1, and eligibility was confirmed based on the above-mentioned inclusion criteria and exclusion criteria. […] They were fasted for 10 hr before administration and 4 hr after administration until lunch, and took lunch at 13:00 p.m. The blood was collected 0.5 hr before and 1, 2, 4, 6, 8, and 10 hr after administration of test compound 1.
# The concentration of anterior pituitary hormone was measured using blood from the placebo administration group of all cohorts and the test subjects who received administration of 1 mg or 10 mg of test compound 1, at 0.5 hr before administration and 2, 4, 6, 8, and 10 hr after administration. The concentrations of growth hormone, follicle-stimulating hormone, luteinizing hormone, thyroid-stimulating hormone, adrenocorticotropic hormone, and prolactin in blood were measured using the Human Growth Hormone Quantikine ELISA Kit (manufactured by R&D Systems), Follicle-Stimulating Hormone (Human) ELISA Kit (manufactured by Cayman Chemical), Luteinizing Hormome (Human) ELISA Kit (manufactured by Cayman Chemical), U-TSH ELISA (manufactured by BIOCHECK), ACTH ELISA Kit (manufactured by MB Biosciences GmbH), and Human Prolactin Quantikine ELISA Kit (manufactured by R&D Systems) according to the protocol described in the package insert of each kit.
# SSTR 3 = molecular target: T2, SSTR 3 (Homo sapiens, UniProt P32745); assay: radiolabeled ligand binding assay, selectivity for human SSTR subtype; conditions: CHO-K1 membrane fraction, [125I] Tyr11-somatostatin 14, 1 µM compound
# T2 construct: expressed in transfected cells; host or cells: CHO-K1 cells (membrane fraction)
# T2 sequence (P32745 whole entry): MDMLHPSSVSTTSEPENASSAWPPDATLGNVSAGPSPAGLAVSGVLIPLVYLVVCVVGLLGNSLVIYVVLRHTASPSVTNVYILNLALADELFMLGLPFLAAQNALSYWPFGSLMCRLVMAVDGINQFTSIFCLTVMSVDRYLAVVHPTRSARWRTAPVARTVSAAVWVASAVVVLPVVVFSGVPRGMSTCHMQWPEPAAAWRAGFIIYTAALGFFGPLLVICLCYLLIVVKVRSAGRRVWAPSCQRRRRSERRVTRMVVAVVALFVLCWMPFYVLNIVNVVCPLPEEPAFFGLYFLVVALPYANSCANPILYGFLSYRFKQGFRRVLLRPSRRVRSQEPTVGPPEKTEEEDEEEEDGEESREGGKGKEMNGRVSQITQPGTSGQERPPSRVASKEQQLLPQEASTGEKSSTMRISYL
# Method: (§1) The selectivity of test compounds for human SSTR subtypes was investigated by radiolabeled ligand binding assay. The membrane fraction of CHO-K1 cells expressing human SSTR1-5 was suspended in am assay buffer (25 mM HEPES (pH 7.4), 5 mM MgCl2, 1 mM CaCl2, 10 µg/mL saponin, 0.5% fatty-acid free BSA) and incubated for 1 hr in the presence of 1 µM test compound 1 and [^125I] Tyr^11-somatostatin 14 (Perkin Elmer). Thereafter, the solution containing the membrane fraction was transferred onto a filter plate, and after washing the filter six times with a wash buffer (25 mM HEPES, 5 mM MgCl2, 1 mM CaCl2), 50 µL of Microscint 20 (Packard) was added, and the radioactivity was measured using a TopCount (Perkin Elmer). The results of competitive activity of the test compound against the binding of the human SSTR subtypes with the labeled ligands are shown in Table 2.
# SSTR 4 = molecular target: T3, SSTR 4 (Homo sapiens, UniProt P31391); assay: as above; conditions: CHO-K1 membrane fraction, [125I] Tyr11-somatostatin 14, 1 µM compound
# T3 construct: expressed in transfected cells; host or cells: CHO-K1 cells (membrane fraction)
# T3 sequence (P31391 whole entry): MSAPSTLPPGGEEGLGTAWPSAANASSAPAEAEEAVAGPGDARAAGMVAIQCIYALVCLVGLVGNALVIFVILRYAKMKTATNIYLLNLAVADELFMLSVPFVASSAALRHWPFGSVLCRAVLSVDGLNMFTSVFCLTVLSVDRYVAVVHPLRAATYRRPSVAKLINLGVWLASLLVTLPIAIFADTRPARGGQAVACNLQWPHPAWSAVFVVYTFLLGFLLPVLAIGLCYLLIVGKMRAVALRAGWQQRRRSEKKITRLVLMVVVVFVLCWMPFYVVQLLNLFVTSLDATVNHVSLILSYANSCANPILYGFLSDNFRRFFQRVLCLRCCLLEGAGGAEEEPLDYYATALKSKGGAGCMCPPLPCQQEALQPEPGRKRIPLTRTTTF
# Method: as §1
# SSTR 1 = molecular target: T4, SSTR 1 (Homo sapiens, UniProt P30872); assay: as above; conditions: CHO-K1 membrane fraction, [125I] Tyr11-somatostatin 14, 1 µM compound
# T4 construct: expressed in transfected cells; host or cells: CHO-K1 cells (membrane fraction)
# T4 sequence (P30872 whole entry): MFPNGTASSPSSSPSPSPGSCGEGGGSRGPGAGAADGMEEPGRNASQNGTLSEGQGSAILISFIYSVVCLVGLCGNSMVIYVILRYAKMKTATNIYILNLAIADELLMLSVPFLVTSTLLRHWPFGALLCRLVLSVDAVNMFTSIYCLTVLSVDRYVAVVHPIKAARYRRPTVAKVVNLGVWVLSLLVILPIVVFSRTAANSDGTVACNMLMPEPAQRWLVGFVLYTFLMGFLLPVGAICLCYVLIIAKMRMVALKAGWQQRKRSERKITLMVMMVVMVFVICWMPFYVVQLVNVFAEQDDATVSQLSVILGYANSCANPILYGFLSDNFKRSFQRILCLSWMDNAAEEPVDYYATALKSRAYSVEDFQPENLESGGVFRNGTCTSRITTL
# Method: as §1
# SSTR 2 = molecular target: T5, SSTR 2 (Homo sapiens, UniProt P30874); assay: as above; conditions: CHO-K1 membrane fraction, [125I] Tyr11-somatostatin 14, 1 µM compound
# T5 construct: expressed in transfected cells; host or cells: CHO-K1 cells (membrane fraction)
# T5 sequence (P30874 whole entry): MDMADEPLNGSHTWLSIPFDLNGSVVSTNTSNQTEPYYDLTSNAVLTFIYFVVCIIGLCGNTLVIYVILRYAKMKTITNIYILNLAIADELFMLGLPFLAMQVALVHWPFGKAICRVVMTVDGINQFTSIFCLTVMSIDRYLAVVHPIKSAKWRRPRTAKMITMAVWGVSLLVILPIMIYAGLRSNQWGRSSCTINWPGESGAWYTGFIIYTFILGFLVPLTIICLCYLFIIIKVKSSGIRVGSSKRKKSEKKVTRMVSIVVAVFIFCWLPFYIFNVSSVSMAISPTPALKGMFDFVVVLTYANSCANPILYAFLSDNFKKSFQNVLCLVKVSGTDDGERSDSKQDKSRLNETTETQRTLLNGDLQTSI
# Method: as §1
# SSTR 5 [3] = molecular target: T1, SSTR 5; assay: as above; parameters: expressed in transfected cells; host or cells: CHO-K1 cells (membrane fraction)
# Method: as §1
compound,measurement,setting,value
"CCOc1c(CN2CCC(N3CCc4nc(CC)c(C(=O)O)cc4C3=O)CC2)cc(C2CC2)c(-c2ccc(F)cc2)c1F [test compound 4, 6-(1-((6-cyclopropyl-3-ethoxy-2,4'-difluorobiphenyl-4-yl)methyl)piperidin-4-yl)-2-ethyl-5-oxo-5,6,7,8-tetrahydro-1,6-naphthyridine-3-carboxylic acid]",inhibition at 1 µM,SSTR 5 [1],95%
"Cc1c(C(=O)O)ccn(C2CCN(Cc3cc(C4CC4)c(-c4ccc(F)cc4)c(F)c3OC(C)C)CC2)c1=O [test compound 6, 1-(1-((6-cyclopropyl-2,4'-difluoro-3-isopropoxybiphenyl-4-yl)methyl)piperidin-4-yl)-3-methyl-2-oxo-1,2-dihydropyridine-4-carboxylic acid]",inhibition at 1 µM,SSTR 5 [1],99%
"CCCc1nc2c(cc1C(=O)O)C(=O)N(C1CCN(Cc3cc(C4CC4)c(-c4ccc(F)cc4F)cc3OCC)CC1)CC2 [test compound 3, 6-(1-((2-cyclopropyl-5-ethoxy-2',4'-difluorobiphenyl-4-yl)methyl)piperidin-4-yl)-5-oxo-2-propyl-5,6,7,8-tetrahydro-1,6-naphthyridine-3-carboxylic acid]",inhibition at 1 µM,SSTR 5 [1],125%
"CCOc1c(CN2CCC(n3ccc(C(=O)O)c(CC)c3=O)CC2)cc(C2CC2)c(-c2ccc(F)cc2)c1F [test compound 5, 1-(1-((6-cyclopropyl-3-ethoxy-2,4'-difluorobiphenyl-4-yl)methyl)piperidin-4-yl)-3-ethyl-2-oxo-1,2-dihydropyridine-4-carboxylic acid]",inhibition at 1 µM,SSTR 5 [1],87%
"CCCc1nc2c(cc1C(=O)O)C(=O)N(C1CCN(Cc3cc(C4CC4)c(-c4ccc(F)cc4)cc3OCC)CC1)CC2 [test compound 1, 6-(1-((2-cyclopropyl-5-ethoxy-4'-fluorobiphenyl-4-yl)methyl)piperidin-4-yl)-5-oxo-2-propyl-5,6,7,8-tetrahydro-1,6-naphthyridine-3-carboxylic acid]",growth hormone secretion (blood growth hormone concentration),"[2]; single oral dose 1 mg and 10 mg, fasting, up to 10 hr after administration, Fig. 1",clearly enhance growth hormone secretion
same,secretion of follicle-stimulating hormone,"[2]; single oral dose 1 mg and 10 mg, fasting, Fig. 2",did not substantially affect the secretion
same,secretion of luteinizing hormone,"[2]; single oral dose 1 mg and 10 mg, fasting, Fig. 3",did not substantially affect the secretion
same,secretion of thyroid-stimulating hormone,"[2]; single oral dose 1 mg and 10 mg, fasting, Fig. 4",did not substantially affect the secretion
same,secretion of adrenocorticotropic hormone,"[2]; single oral dose 1 mg and 10 mg, fasting, Fig. 5",did not substantially affect the secretion
same,secretion of prolactin,"[2]; single oral dose 1 mg and 10 mg, fasting, Fig. 6",did not substantially affect the secretion
same,increase in blood growth hormone concentration compared with growth hormone replacement therapy,[2]; compared with literature values for patients with pediatric growth hormone deficiency (J Clin Endocrinol Metab. 2017),corresponds to the blood growth hormone concentration obtained by growth hormone replacement therapy
same,labeled ligand binding rate (%) at 1 µM,SSTR 3,99.22%
same,labeled ligand binding rate (%) at 1 µM,SSTR 4,109.00%
same,labeled ligand binding rate (%) at 1 µM,SSTR 1,105.83%
same,labeled ligand binding rate (%) at 1 µM,SSTR 2,100.31%
same,labeled ligand binding rate (%) at 1 µM,"SSTR 5 [3]; SSTR 5, CHO-K1 membrane fraction, [125I] Tyr11-somatostatin 14, 1 µM compound",4.51%
same,selectivity among the human SSTR subtypes,"SSTR 5 [3]; conclusion from Table 2, 1 µM",selectively binds to SSTR5
same,inhibition at 1 µM,SSTR 5 [1],87%
"CCCc1nc2c(cc1C(=O)O)C(=O)N(C1CCN(Cc3cc(C4CC4)c(-c4ccc(F)cc4)c(F)c3OCC)CC1)CC2 [test compound 2, 6-(1-((6-cyclopropyl-3-ethoxy-2,4'-difluorobiphenyl-4-yl)methyl)piperidin-4-yl)-5-oxo-2-propyl-5,6,7,8-tetrahydro-1,6-naphthyridine-3-carboxylic acid]",inhibition at 1 µM,SSTR 5 [1],85%
"CCOc1c(CN2CCC(n3ccc(C(=O)O)c(C)c3=O)CC2)cc(C2CC2)c(-c2ccc(F)cc2)c1F [test compound 7, 1-(1-((6-cyclopropyl-3-ethoxy-2,4'-difluorobiphenyl-4-yl)methyl)piperidin-4-yl)-3-methyl-2-oxo-1,2-dihydropyridine-4-carboxylic acid]",inhibition at 1 µM,SSTR 5 [1],87%
